Assays:
[1] = system: newly diagnosed multiple myeloma, patients ineligible for HDC and ASCT; test: Phase 3 MAIA study (NCT02252172), interim analysis: progression-free survival, response by IMWG criteria, survival; format: in vivo, human
Experimental: Subject participation will include a Screening Phase, a Treatment Phase, and a Follow-up Phase. The Screening Phase will be up to 21 days before Cycle 1, Day 1. The Treatment Phase will extend from Day 1 of Cycle 1 until discontinuation of all study treatment. […] This will equate to […] of dosing at the start of the study and a total of 23 doses in the first year. Lenalidomide will be administered at a dose of 25 mg orally (PO) on Days 1 through 21 of each 28-day cycle, and dexamethasone will be administered at a dose of 40 mg once a week. Subjects in both treatment arms will continue lenalidomide and dexamethasone until disease progression or unacceptable toxicity. […] Randomization will be stratified by International Staging System (I vs II vs III), region (North America vs Other), and age (<75 vs >75), using an equal allocation ratio of 1:1.
The primary endpoint is PFS, which is defined as the duration from the date of randomization to either progressive disease, or death, whichever occurs first. Disease progression will be determined according to the IMWG criteria.
The secondary efficacy endpoints include: • Time to disease progression (TTP) is defined as the time from the date of randomization to the date of first documented evidence of PD, as defined in the IMWG criteria. […] Disease progression will be based on investigator judgment. For those subjects who are still alive and not yet progressed on the next line of treatment, they will be censored on the last date of follow-up. • Overall survival (OS), measured from the date of randomization to the date of the subject's death. […] For subjects without response, data will be censored either at the date of progressive disease or, in the absence of progressive disease, at the last disease evaluation before the start of subsequent anti-myeloma therapy. • Duration of response, calculated from the date of initial documentation of a response (PR or better) to the date of first documented evidence of progressive disease, as defined in the IMWG criteria. For subjects who have not progressed, data will be censored at the last disease evaluation before the start of any subsequent anti-myeloma therapy. • To evaluate clinical efficacy of DRd in high risk molecular subgroups compared to Rd alone. • To evaluate the impact of DRd compared to Rd on patient-reported perception of global health.
Disease evaluations will be performed by a central laboratory (unless otherwise specified). This study will use the IMWG consensus recommendations for multiple myeloma treatment response criteria (Durie et al., Leukemia, 20:[…], 2006, Rajkumar et al., Blood, 117:4691-4695, 2011) presented in Table 1. For quantitative immunoglobulin, M-protein, and immunofixation measurements in serum and 24 hour urine, the investigator will use results provided by the central laboratory.
The primary endpoint was progression-free survival. The study protocol is described in Example 1.
Patients were stratified by International Staging System (ISS; I vs. II vs. III), region (North America vs. Other), and age (<75 years vs. >75 years).
During each 28-day cycle, all patients received oral lenalidomide (25 mg, Days 1-21) and oral dexamethasone (40 mg, Days 1, 8, 15, and 22) until disease progression or unacceptable toxicity. For patients older than 75 years of age or with body mass index less than 18.5 kg/m^2, dexamethasone was administered at a dose of 20 mg once weekly. […] Pre-infusion medications were administered to manage infusion reactions.
The primary endpoint was progression-free survival (time from date of randomization to either disease progression or death).

[2] = system: transplant-ineligible NDMM patients; test: MAIA subgroup analysis by age (<75 vs >75 y): safety (TEAEs, discontinuations); format: in vivo, human
Experimental: To examine the impact of age on the efficacy and safety of D-Rd vs Rd in this patient population, a subgroup analysis was conducted within patients <75 and >75 y of age.
Transplant-ineligible NDMM patients were randomized 1:1 to Rd±DARA; stratification was based on age (<75 vs >75 years), ISS (I, II, III), and region (North America vs Other). In standard Rd dosing, patients received 28-day cycles of lenalidomide 25 mg PO QD on Days 1-21 and dexamethasone 40 mg PO on Days 1, 8, 15 and 22 until progression. A portion of patients received 10 mg lenalidomide and 20 mg dexamethasone at the beginning of the treatment. In the DRd arm, patients received daratumumab (DARZALEX®) 16 mg/kg IV QW for Cycles 1-2, Q2W for Cycles 3-6, and Q4W thereafter until progression. PFS was the primary endpoint.

[3] = system: patients with newly diagnosed multiple myeloma ineligible for HDC and ASCT; details: in vivo
Source text: Safety will be measured by adverse events, laboratory test results, ECGs, vital sign measurements, physical examination findings, and assessment of ECOG performance status score.
Safety analyses included adverse event assessment graded in severity according to NCI-CTCAE version 4, electrocardiograms, clinical laboratory testing, physical examinations, and vital signs.
The safety population included patients who received any dose of trial treatment.

[4] = ITT population, median follow-up 28.0 months
[5] = grade 3/4 TEAEs, <75 y patients
[6] = grade 3/4 TEAEs, >75 y patients

Substance: daratumumab (DARZALEX®) group: daratumumab (DARZALEX®) in combination with lenalidomide and dexamethasone
- events of progression or death while receiving the next line of therapy ([1]; 155 events in total): 68 patients
- patients with disease progression events (time-to-event analysis of disease progression) ([1]; 179 events in total): 17.9%
- reduction of the risk of progression or death ([1]; DRd vs Rd, primary analysis of MAIA): 44%
- Kaplan-Meier estimate of the 30-month rate of progression-free survival ([1]; ITT population): 70.6%
- median time to progression ([1]; ITT population): not being reached
- Overall response: No. with response ([1]; ITT population (N = 368 vs 369), median follow-up 28.0 months): 342
- median overall survival ([1]; ITT population, long-term follow-up ongoing): not reached
- median progression-free survival ([1]; ITT population, median follow-up 28 months): not reached
- Best overall response: Complete response [1, 4]: 63 (17.1) no. (%)
- Best overall response: Complete response or better [1, 4]: 175 (47.6) no. (%)
- Best overall response: Partial response [1, 4]: 50 (13.6) no. (%)
- Best overall response: Progressive disease [1, 4]: 1 (0.3) no. (%)
- Best overall response: Response could not be evaluated [1, 4]: 14 (3.8) no. (%)
- Best overall response: Stringent complete response [1, 4]: 112 (30.4) no. (%)
- Best overall response: Very good partial response [1, 4]: 117 (31.8) no. (%)
- Best overall response: Very good partial response or better [1, 4]: 292 (79.3) no. (%)
- Overall response rate [1, 4]: 92.9%
- rate of complete response or better ([1]; ITT population, P<0.0001): 47.6%
- rate of very good partial response or better ([1]; ITT population, P<0.0001): 79.3%
- treatment discontinued due to progressive disease ([1]; at clinical cutoff date Sep. 24, 2018): 14.6%
- 36-month rate of progression-free survival 2 ([1]; in vivo): 77.1%
- median duration of response ([1]; in vivo): not reached
- median time to complete response or better ([1]; in vivo): 10.4 months
- median time to first response among responders ([1]; in vivo): 1.05 months
- patients with events of disease progression or death ([1]; median follow-up 28.0 months, 240 events in total): 26.4%
- deaths ([1]; number of deaths, 138 in total, median follow-up 28.0 months): 62
- median progression-free survival 2 ([1]; progression on next line of therapy or death): not reached
- discontinuation rate due to infections ([2]; <75 y): 1%
- discontinued lenalidomide due to TEAEs ([2]; <75 y): 15%
- discontinued treatment due to TEAEs ([2]; <75 y): 5%
- discontinuation rate due to infections ([2]; >75 y): 0%
- discontinued lenalidomide due to TEAEs ([2]; >75 y): 29%
- discontinued treatment due to TEAEs ([2]; >75 y): 10%
- anemia [2, 5]: 9%
- leukopenia [2, 5]: 10%
- lymphopenia [2, 5]: 12%
- neutropenia [2, 5]: 43%
- pneumonia [2, 5]: 13%
- anemia [2, 6]: 16%
- leukopenia [2, 6]: 12%
- lymphopenia [2, 6]: 19%
- neutropenia [2, 6]: 60%
- pneumonia [2, 6]: 15%
- thrombocytopenia [2, 6]: 8%
- discontinuation of trial treatment due to infections [3]: 0.5%
- rate of any-grade infections [3]: 86.3%
- rate of grade 3 or 4 infections [3]: 32.1%

— patent publication US20200268847A1, “Methods of Treating Newly Diagnosed Multiple Myeloma with a Combination of An Antibody that Specifically Binds CD38, Lenalidomide and Dexamethasone” (Janssen Biotech, Inc., priority 2019, published 2020)
